Molecules are shown by their SMILES. Where a name gives a salt, the structure may show the parent alone.

Data on 34 compounds can be found in US20090156646A1, “PYRIDYLPHENOL COMPOUND AND USE THEREOF” (TAKEDA PHARMACEUTICAL COMPANY LIMITED, priority 2005, published 2009).

The compound `CN(C)c1cccc(-c2cc(-c3ccccc3O)nc(NC(=O)c3cccs3)c2C#N)c1` [Example 38, N-{3-cyano-4-[3-(dimethylamino)phenyl]-6-(2-hydroxyphenyl)pyridin-2-yl}thiophene-2-carboxamide] came in with a melting point of 230 to 231 °C.

The compound `Cl.N#Cc1c(-c2cccc(N3CCOCC3)c2)cc(-c2ccc(F)cc2O)nc1NC(=O)c1ccco1` returned a melting point of 244 to 246 °C.

As for `COc1cccc(O)c1-c1cc(-c2cccc(NC(=O)CCN)c2)c(C#N)c(NC(=O)c2ccccc2)n1` (as salt: trifluoroacetate) [Example 52, N-{4-[3-(β-alanylamino)phenyl]-3-cyano-6-(2-hydroxy-6-methoxyphenyl)pyridin-2-yl}benzamide trifluoroacetate], the melting point fell in the range of 160 to 167 °C.

In turn, `Nc1cccc(-c2cc(NC(=O)c3cccs3)nc(-c3ccccc3O)c2)c1` [Example 25, N-[4-(3-aminophenyl)-6-(2-hydroxyphenyl)pyridin-2-yl]thiophene-2-carboxamide] gave a melting point of 161 to 162 °C.

Regarding `N#Cc1c(-c2cccc(C(=O)N3CCOCC3)c2)cc(-c2ccccc2O)nc1NC(=O)c1cccs1` [Example 36, N-{3-cyano-6-(2-hydroxyphenyl)-4-[3-(morpholin-4-ylcarbonyl)phenyl]pyridin-2-yl}thiophene-2-carboxamide], the melting point lay in the range of 253 to 254 °C.

For `CCOc1ccccc1C(=O)Nc1nc(-c2ccc(Cl)cc2O)cc(-c2cccc(NC(=O)CCN)c2)c1C#N.Cl`, the melting point was in the range of 240 to 244 °C.

`N#Cc1c(-c2cccc(NC(=O)[C@@H](N)Cc3cnc[nH]3)c2)cc(-c2ccc(Cl)cc2O)nc1NC(=O)c1ccco1` (as salt: hydrochloride) [Example 243, N-{3-[6-(4-chloro-2-hydroxyphenyl)-3-cyano-2-(2-furoylamino)pyridin-4-yl]phenyl}-L-histidinamide dihydrochloride]: the melting point is 206 to 214 °C.

`N#Cc1c(-c2cccc(N)c2)cc(-c2ccccc2O)nc1NC(=O)c1ccc(Cl)s1` [Example 32, N-[4-(3-aminophenyl)-3-cyano-6-(2-hydroxyphenyl)pyridin-2-yl]-5-chlorothiophene-2-carboxamide]: the melting point fell in the range of 259 to 260 °C.

For `CN1CCN(Cc2cccc(-c3cc(-c4ccc(F)cc4O)nc(NC(=O)c4ccco4)c3C#N)c2)CC1` (as salt: hydrochloride) [Example 333, N-(3-cyano-6-(4-fluoro-2-hydroxyphenyl)-4-{3-[(4-methylpiperazin-1-yl)methyl]phenyl}pyridin-2-yl)-2-furamide dihydrochloride], the melting point was 205 to 210 °C.

`CN(C)C[C@@H](C(=O)Nc1cccc(-c2cc(-c3ccc(F)cc3O)nc(NC(=O)c3ccco3)c2C#N)c1)N(C)C` (as salt: hydrochloride) [Example 305, N-[3-cyano-4-(3-{[3-(dimethylamino)-N,N-dimethyl-L-alanyl]amino}phenyl)-6-(4-fluoro-2-hydroxyphenyl)pyridin-2-yl]-2-furamide dihydrochloride] yielded a melting point of 195 to 200 °C.

Regarding `Cl.N#Cc1c(-c2cccc(N3CCCCC3)c2)cc(-c2ccc(F)cc2O)nc1NC(=O)c1ccco1`, the melting point lay within 240 to 242 °C.

The compound `N#Cc1c(-c2cccc(N)c2)cc(-c2ccccc2O)nc1NC(=O)c1ccsc1` [Example 33, N-[4-(3-aminophenyl)-3-cyano-6-(2-hydroxyphenyl)pyridin-2-yl]thiophene-3-carboxamide] had a melting point of 257 to 260 °C.

Take `N#Cc1c(-c2cccc(NC(=O)CCN)c2)cc(-c2ccc(Cl)cc2O)nc1NC(=O)c1cccs1` (as salt: trifluoroacetate) [Example 56, N-{4-[3-(β-alanylamino)phenyl]-6-(4-chloro-2-hydroxyphenyl)-3-cyanopyridin-2-yl}thiophene-2-carboxamide trifluoroacetate]: the melting point fell in the range of 206 to 209 °C.

Compound `N#Cc1c(-c2cccc(NC(=O)CCN)c2)cc(-c2ccccc2O)nc1NC(=O)c1ccccc1` (as salt: trifluoroacetate) [Example 31, N-[4-(3-(β-alanylamino)phenyl)-3-cyano-6-(2-hydroxyphenyl)pyridin-2-yl]benzamide trifluoroacetate] yielded a melting point of 225 to 226 °C.

In turn, `CC(C)(C)OC(=O)c1c(-c2cccc(N)c2)cc(-c2ccccc2O)nc1NC(=O)c1ccccc1` [Example 62, tert-butyl 4-(3-aminophenyl)-2-(benzoylamino)-6-(2-hydroxyphenyl)nicotinate] returned a melting point of 162 to 164 °C.

On to `CN(C)CC(=O)Nc1cccc(-c2cc(-c3ccc(F)cc3O)nc(NC(=O)c3ccco3)c2CN(C)C)c1` (as salt: hydrochloride) [Example 300, N-[3-[(dimethylamino)methyl]-4-{3-[(N,N-dimethylglycyl)amino]phenyl}-6-(4-fluoro-2-hydroxyphenyl)pyridin-2-yl]-2-furamide dihydrochloride], for which the melting point was 186 to 194 °C.

In turn, `CCN(CC)CCN(CC)c1cccc(-c2cc(-c3ccc(F)cc3O)nc(NC(=O)c3ccco3)c2C#N)c1` (as salt: hydrochloride) [Example 304, N-[3-cyano-4-{3-[[2-(diethylamino)ethyl] (ethyl)amino]phenyl}-6-(4-fluoro-2-hydroxyphenyl)pyridin-2-yl]-2-furamide dihydrochloride] gave a melting point of 138 to 144 °C.

Consider `COc1ccccc1C(=O)Nc1nc(-c2ccc(Cl)cc2O)cc(-c2cccc(C(=O)NCCN)c2)c1C#N.Cl`, for which the melting point is 227 to 229 °C.

In turn, `N#Cc1c(-c2cccc(C(=O)NC3CCCNC3)c2)cc(-c2ccccc2O)nc1NC(=O)c1ccccn1` (stereo not shown) (as salt: hydrochloride) [Example 10, N-(3-cyano-6-(2-hydroxyphenyl)-4-{3-[(piperidin-3-ylamino)carbonyl]phenyl}pyridin-2-yl)pyridin-2-carboxamide dihydrochloride] registered a melting point of 204 to 210 °C.

Take `CCCNC(=O)c1cccc(-c2cc(-c3ccccc3O)nc(NC(=O)c3cccs3)c2C#N)c1` [Example 34, N-(3-cyano-6-(2-hydroxyphenyl)-4-{3-[(propylamino)carbonyl]phenyl}pyridin-2-yl)thiophene-2-carboxamide]: the melting point was in the range of 245 to 246 °C.

Consider `Cl.N#Cc1c(-c2cccc(C(=O)NC3CCCNC3)c2)cc(-c2ccccc2O)nc1NC(=O)c1cc2ccccc2s1` (stereo not shown), for which the melting point lay within 225 to 229 °C.

`CC(C)(C)OC(=O)c1c(-c2cccc(NC(=O)CCN)c2)cc(-c2ccccc2O)nc1NC(=O)c1ccccc1` [Example 82, tert-butyl 4-[3-(β-alanylamino)phenyl]-2-(benzoylamino)-6-(2-hydroxyphenyl) nicotinate] registered a melting point of 247 to 249 °C.

On to `Cl.N#Cc1c(-c2cccc(NC(=O)CC3CCCCN3)c2)cc(-c2ccc(F)cc2O)nc1NC(=O)c1ccco1` (stereo not shown) [Example 290], for which the melting point was 277 to 278 °C (dec.).

`CNCC(=O)Nc1cccc(-c2cc(-c3ccccc3O)nc(NC(=O)c3cccs3)c2C#N)c1.Cl` returned a melting point of 248 to 254 °C.

`N#Cc1c(-c2cccc(NC(=O)[C@@H](N)CN)c2)cc(-c2ccc(F)cc2O)nc1NC(=O)c1ccco1` (as salt: hydrochloride) [Example 302, N-[4-{3-[(3-amino-L-alanyl)amino]phenyl}-3-cyano-6-(4-fluoro-2-hydroxyphenyl)pyridin-2-yl]-2-furamide dihydrochloride]: the melting point fell in the range of 231 to 240 °C.

Regarding `N#Cc1c(-c2cccc(N)c2)cc(-c2ccccc2O)nc1NC(=O)C1CCCCC1` [Example 29, N-[4-(3-aminophenyl)-3-cyano-6-(2-hydroxyphenyl)pyridin-2-yl]cyclohexanecarboxamide], the melting point lay in the range of 236 to 238 °C.

The compound `CN(C)c1ccc(-c2cc(-c3ccccc3O)nc(NC(=O)c3cccs3)c2C#N)cc1C(=O)NCCN` (as salt: hydrochloride) [Example 248, N-[4-[3-{[(2-aminoethyl)amino]carbonyl}-4-(dimethylamino)phenyl]-3-cyano-6-(2-hydroxyphenyl)pyridin-2-yl]thiophene-2-carboxamide dihydrochloride] returned a melting point of 210 to 216 °C.

On to `Cl.N#Cc1c(-c2cccc(C(=O)N3CCNCC3)c2)cc(-c2ccccc2O)nc1NC(=O)c1cccs1`, for which the melting point was in the range of 232 to 236 °C.

Take `N#Cc1c(-c2cccc(NC(=O)CCN)c2)cc(-c2cc(Cl)ccc2O)nc1NC(=O)c1ccccc1` (as salt: trifluoroacetate) [Example 47, N-{4-[3-(β-alanylamino)phenyl]-6-(5-chloro-2-hydroxyphenyl)-3-cyanopyridin-2-yl}benzamide trifluoroacetate]: the melting point fell in the range of 205 to 210 °C.

Compound `N#Cc1c(-c2ccccc2C(=O)NCCN)cc(-c2ccccc2O)nc1NC(=O)c1cccs1` (as salt: hydrochloride) [Example 24, N-[4-(2-{[(2-aminoethyl)amino]carbonyl}phenyl)-3-cyano-6-(2-hydroxyphenyl)pyridin-2-yl]thiophene-2-carboxamide dihydrochloride] gave a melting point of 196 to 201 °C.

`CCCC(CC(=O)Nc1cccc(-c2cc(-c3ccc(F)cc3O)nc(NC(=O)c3ccco3)c2C#N)c1)N(CC)CC` (stereo not shown) (as salt: hydrochloride) [Example 317, N-[3-cyano-4-(3-{[3-(diethylamino)hexanoyl]amino}phenyl)-6-(4-fluoro-2-hydroxyphenyl)pyridin-2-yl]-2-furamide hydrochloride] registered a melting point of 195 to 197 °C.

`CCN1CCN(Cc2cccc(-c3cc(-c4ccc(F)cc4O)nc(NC(=O)c4ccco4)c3C#N)c2)CC1` (as salt: hydrochloride) [Example 334, N-[3-cyano-4-{3-[(4-ethylpiperazin-1-yl)methyl]phenyl}-6-(4-fluoro-2-hydroxyphenyl)pyridin-2-yl]-2-furamide dihydrochloride] yielded a melting point of 215 to 222 °C.

As to `Cl.N#Cc1c(-c2cccc(NC(=O)CN3CCCCC3)c2)cc(-c2ccc(F)cc2O)nc1NC(=O)c1ccco1`, the melting point lay in the range of 249 to 251 °C.

`Cl.N#Cc1c(-c2cccc(C(=O)NCCCN)c2)cc(-c2ccccc2O)nc1NC(=O)c1cccs1` yielded a melting point of 192 to 198 °C.
